Assay results taken from ChEMBL document CHEMBL1795317, “Synthesis and antitubercular evaluation of amidoalkyl dibenzofuranols and 1H-benzo[2,3]benzofuro[4,5-e][1,3]oxazin-3(2H)-ones” (Bioorg Med Chem Lett, 2011).
In brackets after ≈: the same amount, converted by molar mass.

Legend:
[1] = system: Mycobacterium tuberculosis; test: Antimicrobial activity against Mycobacterium tuberculosis H37Rv ATCC 27294 after 28 days by agar dilution method; type: functional; conditions: H37Rv ATCC 27294, 672 h
[2] = Lipophilicity, log P of the compound; type: physicochemical; conditions: octanol/water

CC[C@@H](CO)NCCN[C@@H](CC)CO [ETHAMBUTOL]
MIC [1]: 3.13 µg/mL (≈ 15.3 µM)

NNC(=O)c1ccncc1 [ISONIAZID]
MIC [1]: 0.1 µg/mL (≈ 0.729 µM)

COc1cc(C(NC(N)=O)c2c(O)ccc3oc4ccccc4c23)cc(OC)c1OC (stereo not given)
MIC [1]: 12.5 µg/mL (≈ 29.6 µM) | logP [2]: 2.29

CC(=O)NC(c1ccccc1)c1c(O)ccc2oc3ccccc3c12 (stereo not given)
MIC [1]: 6.25 µg/mL (≈ 18.9 µM) | logP [2]: 3

NC(=O)NC(c1ccc(Br)cc1)c1c(O)ccc2oc3ccccc3c12 (stereo not given)
MIC [1]: 3.13 µg/mL (≈ 7.61 µM) | logP [2]: 3.5

COc1ccc(C2NC(=O)Oc3ccc4oc5ccccc5c4c32)cc1 (stereo not given)
MIC [1]: 6.25 µg/mL (≈ 18.1 µM) | logP [2]: 3.48

CC(=O)NC(c1ccc(Br)cc1)c1c(O)ccc2oc3ccccc3c12 (stereo not given)
MIC [1]: 6.25 µg/mL (≈ 15.2 µM) | logP [2]: 3.83

O=C1NC(c2ccccc2)c2c(ccc3oc4ccccc4c23)O1 (stereo not given)
MIC [1]: 3.13 µg/mL (≈ 9.93 µM) | logP [2]: 3.61

NC(=O)c1cnccn1 [PYRAZINAMIDE]
MIC [1]: 50 µg/mL (≈ 406 µM)

COc1cc(C(NC(=O)c2ccccc2)c2c(O)ccc3oc4ccccc4c23)cc(OC)c1OC (stereo not given)
MIC [1]: 12.5 µg/mL (≈ 25.9 µM) | logP [2]: 4.52

O=C(NC(c1ccc(Cl)cc1)c1c(O)ccc2oc3ccccc3c12)c1ccccc1 (stereo not given)
MIC [1]: 12.5 µg/mL (≈ 29.2 µM) | logP [2]: 5.46

COc1ccc(C(NC(C)=O)c2c(O)ccc3oc4ccccc4c23)cc1 (stereo not given)
MIC [1]: 6.25 µg/mL (≈ 17.3 µM) | logP [2]: 2.87

COc1ccc(C(NC(N)=O)c2c(O)ccc3oc4ccccc4c23)cc1 (stereo not given)
MIC [1]: 6.25 µg/mL (≈ 17.2 µM) | logP [2]: 2.55

NC(=O)NC(c1ccc(Cl)cc1)c1c(O)ccc2oc3ccccc3c12 (stereo not given)
MIC [1]: 3.13 µg/mL (≈ 8.53 µM) | logP [2]: 3.23

O=C1NC(c2ccc(Br)cc2)c2c(ccc3oc4ccccc4c23)O1 (stereo not given)
MIC [1]: 1.56 µg/mL (≈ 3.96 µM) | logP [2]: 4.43

CC(=O)NC(c1ccc(Cl)cc1)c1c(O)ccc2oc3ccccc3c12 (stereo not given)
MIC [1]: 6.25 µg/mL (≈ 17.1 µM) | logP [2]: 3.56

COc1cc(C(NC(C)=O)c2c(O)ccc3oc4ccccc4c23)cc(OC)c1OC (stereo not given)
MIC [1]: 12.5 µg/mL (≈ 29.7 µM) | logP [2]: 2.62

O=C1NC(c2ccc(Cl)cc2)c2c(ccc3oc4ccccc4c23)O1 (stereo not given)
MIC [1]: 1.56 µg/mL (≈ 4.46 µM) | logP [2]: 4.16

COc1cc(C2NC(=O)Oc3ccc4oc5ccccc5c4c32)cc(OC)c1OC (stereo not given)
MIC [1]: 12.5 µg/mL (≈ 30.8 µM) | logP [2]: 3.23
